From patent US7417156B2, “Orally active, antimalarial, anticancer, artemisinin-derived trioxane dimers” (Johns Hopkins University, priority 2002, dated 2008)

Experiments:
BT-549 = assay: NCI 60 cell line panel screen (SRB); format: cell-based, human
[1] = system: Ehrlich ascites tumor (EAT) cells; conditions: MTT assay; cited from earlier work
SNB-19 = assay: NCI 60 cell line panel screen (SRB); format: cell-based, human
UACC-62 = assay: NCI 60 cell line panel screen (SRB); format: cell-based, human
ACHN = assay: NCI 60 cell line panel screen (SRB); format: cell-based, human
SK-MEL-5 = assay: NCI 60 cell line panel screen (SRB); format: cell-based, human
HOP-62 = assay: NCI 60 cell line panel screen (SRB); format: cell-based, human
[2] = system: P. vivax and P. falciparum; conditions: 2099 cases of malaria, different dosage forms; cited from earlier work
SN12C = assay: NCI 60 cell line panel screen (SRB); format: cell-based, human
MDA-N = assay: NCI 60 cell line panel screen (SRB); format: cell-based, human
A498 = assay: NCI 60 cell line panel screen (SRB); format: cell-based, human
P. berghei = conditions: P. berghei-infected mice; cited from earlier work
NCI-H226 = assay: NCI 60 cell line panel screen (SRB); format: cell-based, human
SW-620 = assay: NCI 60 cell line panel screen (SRB); format: cell-based, human
SR = assay: NCI 60 cell line panel screen (SRB); format: cell-based, human
HCC-2998 = assay: NCI 60 cell line panel screen (SRB); format: cell-based, human
P388 leukemia = conditions: NCI Report on NSC 369397; cited from earlier work

C[C@@H]1CC[C@H]2[C@@H](C)C(=O)O[C@@H]3O[C@]4(C)CC[C@@H]1[C@]32OO4 [Artemisinin]
clinical cure of all patients: clinical outcome [2]
>−4.10: Log10GI50 (SK-MEL-5; Melanoma, SK-MEL-5)
6.20 mg/kg: SD90 (P. berghei)
−4.21: Log10GI50 (SN12C; Renal Cancer, SN12C)
inactive: activity in words (P388 leukemia)
−4.06: Log10GI50 (BT-549; Breast Cancer, BT-549)
>−4.00: Log10GI50 (SNB-19; CNS Cancer, SNB-19) | Log10GI50 (UACC-62; Melanoma, UACC-62) | Log10GI50 (ACHN; Renal Cancer, ACHN) | Log10GI50 (HOP-62; Non-Small Cell Lung Cancer, HOP-62) | Log10GI50 (MDA-N; Breast Cancer, MDA-N) | Log10GI50 (A498; Renal Cancer, A498) | Log10GI50 (NCI-H226; Non-Small Cell Lung Cancer, NCI-H226) | Log10GI50 (SW-620; Colon Cancer, SW-620) | Log10GI50 (SR; Leukemia, SR) | Log10GI50 (HCC-2998; Colon Cancer, HCC-2998)
29.8 µM: IC50 [1]
>−4.00 log10M: Log10LC50 (BT-549; BT-549 (Breast Cancer), LC50: PG=−50) | Log10TGI50 (BT-549; BT-549 (Breast Cancer), TGI: PG=0) | Log10LC50 (SNB-19; SNB-19 (CNS Cancer), LC50: PG=−50) | Log10TGI50 (SNB-19; SNB-19 (CNS Cancer), TGI: PG=0) | Log10LC50 (UACC-62; UACC-62 (Melanoma), LC50: PG=−50) | Log10TGI50 (UACC-62; UACC-62 (Melanoma), TGI: PG=0) | Log10LC50 (ACHN; ACHN (Renal Cancer), LC50: PG=−50) | Log10TGI50 (ACHN; ACHN (Renal Cancer), TGI: PG=0) | Log10TGI50 (SK-MEL-5; SK-MEL-5 (Melanoma), TGI: PG=0) | Log10LC50 (HOP-62; HOP-62 (Non-Small Cell Lung Cancer), LC50: PG=−50) | Log10TGI50 (HOP-62; HOP-62 (Non-Small Cell Lung Cancer), TGI: PG=0) | Log10LC50 (SN12C; SN12C (Renal Cancer), LC50: PG=−50) | Log10TGI50 (SN12C; SN12C (Renal Cancer), TGI: PG=0) | Log10LC50 (MDA-N; MDA-N (Breast Cancer), LC50: PG=−50) | Log10TGI50 (MDA-N; MDA-N (Breast Cancer), TGI: PG=0) | Log10LC50 (A498; A498 (Renal Cancer), LC50: PG=−50) | Log10TGI50 (A498; A498 (Renal Cancer), TGI: PG=0) | Log10LC50 (NCI-H226; NCI-H226 (Non-Small Cell Lung Cancer), LC50: PG=−50) | Log10TGI50 (NCI-H226; NCI-H226 (Non-Small Cell Lung Cancer), TGI: PG=0) | Log10LC50 (SW-620; SW-620 (Colon Cancer), LC50: PG=−50) | Log10TGI50 (SW-620; SW-620 (Colon Cancer), TGI: PG=0) | Log10LC50 (SR; SR (Leukemia), LC50: PG=−50) | Log10TGI50 (SR; SR (Leukemia), TGI: PG=0) | Log10LC50 (HCC-2998; HCC-2998 (Colon Cancer), LC50: PG=−50) | Log10TGI50 (HCC-2998; HCC-2998 (Colon Cancer), TGI: PG=0)
